EC50 data for 18 compounds are collected here from BindingDB's records for doi:10.7270/Q2251GJ9 (The Scripps Research Institute Molecular Screening Center, 2007).

Bounds are passed on as bounds.

The target in the first assay is Sphingosine 1-phosphate receptor 1 (Homo sapiens, UniProt P21453). The assay can be described thus: S1P1 receptor agonists, dose response, cell-based, agonist mode, 60K MLSMR set (AID 468).
Sequence of Sphingosine 1-phosphate receptor 1 (P21453 whole entry): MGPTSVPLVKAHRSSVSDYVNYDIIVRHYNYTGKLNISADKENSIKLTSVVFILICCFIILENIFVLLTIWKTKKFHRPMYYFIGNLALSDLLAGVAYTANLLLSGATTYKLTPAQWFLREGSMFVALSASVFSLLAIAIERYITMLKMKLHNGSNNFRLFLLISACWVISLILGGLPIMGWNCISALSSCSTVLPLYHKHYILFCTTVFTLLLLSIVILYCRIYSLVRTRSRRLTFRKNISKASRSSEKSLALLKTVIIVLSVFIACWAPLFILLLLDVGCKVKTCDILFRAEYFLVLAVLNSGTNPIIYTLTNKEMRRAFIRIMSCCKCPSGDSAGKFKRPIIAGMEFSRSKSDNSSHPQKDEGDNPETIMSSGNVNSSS
Conditions: not given
`COc1cccc2sc(Nc3nc(-c4ccccn4)cs3)nc12` [(4-methoxy-1,3-benzothiazol-2-yl)-[4-(2-pyridyl)thiazol-2-yl]amine] returned an EC50 of 2.75 µM.
Still for that read-out and setting: the value for `O=C(C1CCCN1S(=O)(=O)c1cccc2cccnc12)N1CCN(c2ccccc2)CC1` (stereo not drawn) [(4-phenyl-1-piperazinyl)-[1-(8-quinolinylsulfonyl)-2-pyrrolidinyl]methanone] was more than 95 µM.
`CCCc1ccc(Oc2c[nH]nc2-c2ccc(O)cc2O)cc1` [(4E)-3-hydroxy-4-[4-(4-propylphenoxy)-1,2-dihydropyrazol-3-ylidene]-1-cyclohexa-2,5-dienone] displayed an EC50 of 15.5 µM.
Take `COc1ccc(C(=O)C2C(=O)C(=O)N(CC3CCCO3)C2c2cccc(OC)c2)cc1` (stereo not drawn) [(4Z)-4-[hydroxy-(4-methoxyphenyl)methylene]-5-(3-methoxyphenyl)-1-(tetrahydrofurfuryl)pyrrolidine-2,3-quinone]: the EC50 is more than 95.1 µM.
`COc1ccc(CCNc2c(C)c(C)nc3ncnn23)cc1` [(5,6-Dimethyl-[1,2,4]triazolo[1,5-a]pyrimidin-7-yl)-[2-(4-methoxy-phenyl)-ethyl]-amine] had a 50% effective concentration (EC50) of 3.12 µM.
Still for that read-out and setting: the value for `CS(=O)(=O)n1nc(OC(=O)c2cccc3ccccc23)cc1N` [(5-amino-1-methylsulfonylpyrazol-3-yl) naphthalene-1-carboxylate] was 9.29 µM.
The same measure, in the same setting: the value for `Cc1nn(C(=O)c2cccs2)c(N)c1-c1ccccc1` [(5-amino-3-methyl-4-phenyl-1-pyrazolyl)-thiophen-2-ylmethanone] was 7.24 µM; that for `Cc1ccc(C(=O)c2cncc(Br)c2)cc1` [(5-bromanylpyridin-3-yl)-(4-methylphenyl)methanone] was 9.76 µM.
`O=C(c1cc(-c2ccccc2)on1)N1CCN(Cc2ccc3c(c2)OCO3)CC1` [(5-phenylisoxazol-3-yl)-(4-piperonylpiperazino)methanone] yielded an EC50 of more than 30 µM.
Same read-out and setting: the value for `CCC(NCc1ccc2c(c1)OCO2)=C1C(=O)NC(=O)N(C2CCCCC2)C1=O` [(5E)-5-[1-(1,3-benzodioxol-5-ylmethylamino)propylidene]-1-cyclohexyl-1,3-diazinane-2,4,6-trione] was 6.81 µM.
Still for that read-out and setting: under `CCc1c(C)nc2ncnn2c1NCCc1ccc(OC)cc1` [(6-Ethyl-5-methyl-[1,2,4]triazolo[1,5-a]pyrimidin-7-yl)-[2-(4-methoxy-phenyl)-ethyl]-amine] stands 8.3 µM; under `Brc1ccc2ncnc(Nc3ccc(N4CCOCC4)cc3)c2c1` [(6-bromoquinazolin-4-yl)-(4-morpholinophenyl)amine], 7.6 µM; under `CCc1ccc2oc(-c3cc(N)cc(C)c3O)nc2c1` [(6E)-4-amino-6-(5-ethyl-3H-1,3-benzoxazol-2-ylidene)-2-methyl-1-cyclohexa-2,4-dienone], 11.4 µM.
As for `CC(C)c1ccc2oc(-c3cc(N)ccc3O)nc2c1` [(6E)-4-amino-6-(5-isopropyl-3H-1,3-benzoxazol-2-ylidene)cyclohexa-2,4-dien-1-one], the EC50 came out at 9.37 µM.
Same read-out and setting: the value for `C=C(C)COc1ccc(-c2nc(N)nc(C)c2Oc2ccccc2OC)c(O)c1` [(6E)-6-[2-amino-5-(2-methoxyphenoxy)-6-methyl-1H-pyrimidin-4-ylidene]-3-(2-methylallyloxy)cyclohexa-2,4-dien-1-one] was 3.8 µM.

The same assay, now with this note: inactive by the depositor's call.
Regarding `CCCn1c(CNc2ccc(Br)cc2)nc2ccccc21` [(4-bromophenyl)-[(1-propylbenzimidazol-2-yl)methyl]amine], the EC50 is 12.1 µM.
For `CCN(CC)C(=O)Oc1ccc2c(=O)c(-c3ccccc3)coc2c1` [(4-oxidanylidene-3-phenyl-chromen-7-yl) N,N-diethylcarbamate], the EC50 was found to be 37.2 µM.
Same read-out and setting: under `Cn1cccc1C(=O)OCc1cc(Cl)cc2c1OCOC2` [(6-chloranyl-4H-1,3-benzodioxin-8-yl)methyl 1-methylpyrrole-2-carboxylate] stands 15.6 µM.
